As usually defined, the IC50 is the concentration needed to halve the response being measured. Read a high IC50 as lower potency.

Molecules are shown by their SMILES. Activity calls are given as the source filed them. No cut-off for these calls is given here.

From ChEMBL document CHEMBL4033626, “Design, synthesis, and structure-activity relationship study of halogen containing 2-benzylidene-1-indanone derivatives for inhibition of LPS-stimulated ROS production in RAW 264.7 macrophages” (Eur J Med Chem, 2017) come the findings set out here.

In data set [1] the test system is RAW264.7. In words: Cytotoxicity against mouse RAW264.7 cells at 10 uM after 24 hrs by MTS assay. The format is cell-based. As to conditions: raw264.7, 24 h.
In data set [2] the test system is RAW264.7. Nature of the data set: Inhibition of LPS-stimulated ROS production in mouse RAW264.7 cells preincubated for 1 hr followed by LPS stimulation after 24 hrs by CMH2DCFDA probe-based fluorescence assay.
For data set [3], the species on record is Mus musculus. Nature of the data set: Inhibition of LPS-stimulated NADPH oxidase activation in mouse RAW264.7 cells assessed as decrease in superoxide formation at 1 uM using NADPH as substrate preincubated for 1 hr followed by LPS stimulation for 24 hrs and subsequent substrate addition after 30 mins by lucigenin-based chemiluminescence assay. The format is cell-based.

Data set [4] can be described thus: Cytotoxicity against mouse RAW264.7 cells assessed as cell viability at 10 uM after 24 hrs by MTS assay relative to control. Particulars: read-out: Activity. It counts as cell-based. On the technique in general: Tetrazolium assays rely on reduction of a dye to a coloured formazan, in cell work by metabolically active cells.

Turning to `O=C1/C(=C/c2ccc(C(F)(F)F)cc2)Cc2ccccc21`, in data set [1], the Activity entry is “Non-Toxic”. In data set [2], this compound showed a 50% inhibitory concentration (IC50) of over 10 µM.
The like results for `O=C1/C(=C/c2cccc(OC(F)(F)F)c2)Cc2cccc(O)c21` were, in that order, “Non-Toxic” and 4.62 µM.
For `O=C1/C(=C/c2cccc(Br)c2)Cc2ccc(O)cc21`, in data set [1], the Activity entry is reported as “Non-Toxic”. In data set [2], it took 3.9 µM to reach half-maximal inhibition (IC50).
For the compound `O=C1/C(=C/c2ccccc2Br)Cc2cccc(O)c21`, in data set [1], the Activity entry is “Non-Toxic”. In data set [2], this compound returned an IC50 of over 10 µM.
For the compound `O=C1/C(=C/c2cccc(Br)c2)Cc2c(O)cccc21`, the Activity result in data set [1] is given as “Non-Toxic”. Besides, the IC50 in data set [2] was over 10 µM.
On the same counts, the results for `O=C1/C(=C/c2ccc(F)cc2)Cc2ccc(O)cc21` are “Non-Toxic” and over 10 µM.
Take `O=C1/C(=C/c2ccccc2OC(F)(F)F)Cc2ccc(O)cc21`: the Activity result in data set [1] is recorded as “Non-Toxic”. The inhibition result in data set [3] was “Active”. The same compound had an IC50 in data set [2] of 1.33 µM.
Take `O=C1/C(=C/c2ccccc2F)Cc2ccccc21`: in data set [1], the Activity result is “Non-Toxic”. The compound also registered a 50% inhibitory concentration (IC50) in data set [2] of over 10 µM.
Regarding `O=C1/C(=C/c2cccc(C(F)(F)F)c2)Cc2c(O)cccc21`, the Activity entry in data set [1] is recorded as “Non-Toxic”. In data set [2], this compound displayed a half-inhibitory concentration (IC50) of over 10 µM.
On the same counts, the results for `O=C1/C(=C/c2ccc(C(F)(F)F)cc2)Cc2c(O)cccc21` are “Non-Toxic” and over 10 µM.
On to `O=C1/C(=C/c2ccccc2Br)Cc2c(O)cccc21`, for which, in data set [1], the Activity entry is listed as “Non-Toxic”. The IC50 in data set [2] is over 10 µM.
The like results for `O=C1/C(=C/c2cccc(OC(F)(F)F)c2)Cc2c(O)cccc21` were, in that order, “Non-Toxic” and over 10 µM.
Turning to `O=C1/C(=C/c2ccc(OC(F)(F)F)cc2)Cc2c(O)cccc21`, in data set [1], the Activity result is reported as “Non-Toxic”. This compound also came in with an IC50 in data set [2] of over 10 µM.
On the same counts, the results for `O=C1/C(=C/c2ccccc2F)Cc2cccc(O)c21` are “Non-Toxic” and 3.82 µM.
On to `O=C1/C(=C/c2cccc(OC(F)(F)F)c2)Cc2ccc(O)cc21`, for which the Activity entry in data set [1] is reported as “Non-Toxic”. The compound further returned an IC50 in data set [2] of over 10 µM.
In the case of `O=C1/C(=C/c2cccc(F)c2)Cc2cc(O)ccc21`, the Activity entry in data set [1] is “Non-Toxic”. In data set [2], the concentration for half-maximal inhibition (IC50) was over 10 µM.
`O=C1/C(=C/c2cccc(Br)c2)Cc2cccc(O)c21`: the Activity result in data set [1] is “Non-Toxic”. The same compound registered a concentration for half-maximal inhibition (IC50) in data set [2] of over 10 µM.
On the same counts, the results for `O=C1/C(=C/c2ccc(OC(F)(F)F)cc2)Cc2cccc(O)c21` are “Non-Toxic” and 3.15 µM.
Regarding `O=C1/C(=C/c2ccc(OC(F)(F)F)cc2)Cc2cc(O)ccc21`, the Activity result in data set [1] is reported as “Non-Toxic”. In data set [2], this compound showed an IC50 of over 10 µM.
For the compound `O=C1/C(=C/c2ccccc2OC(F)(F)F)Cc2cccc(O)c21`, in data set [1], the Activity entry is reported as “Non-Toxic”. Also, half-maximal inhibition in data set [2] (IC50) was put at 3.25 µM.
On the same counts, the results for `O=C1/C(=C/c2ccc(F)cc2)Cc2cccc(O)c21` are “Non-Toxic” and 5.06 µM.
On the same counts, the results for `O=C1/C(=C/c2ccccc2F)Cc2ccc(O)cc21` are “Non-Toxic” and over 10 µM.
For `O=C1/C(=C/c2ccc(Br)cc2)Cc2ccccc21`, the Activity result in data set [1] is “Non-Toxic”. Also, the IC50 in data set [2] was over 10 µM.
The like results for `O=C1/C(=C/c2cccc(C(F)(F)F)c2)Cc2ccc(O)cc21` were, in that order, “Non-Toxic” and 4.55 µM.
On the same counts, the results for `O=C1/C(=C/c2cccc(C(F)(F)F)c2)Cc2ccccc21` are “Non-Toxic” and over 10 µM.
On the same counts, the results for `O=C1/C(=C/c2ccc(C(F)(F)F)cc2)Cc2cc(O)ccc21` are “Non-Toxic” and 5.55 µM.
As for `O=C1/C(=C/c2cccc(Br)c2)Cc2cc(O)ccc21`, the Activity result in data set [1] is on record as “Non-Toxic”. The same compound returned an IC50 in data set [2] of 4.05 µM.
On the same counts, the results for `O=C1/C(=C/c2ccc(F)cc2)Cc2cc(O)ccc21` are “Non-Toxic” and over 10 µM.
With `O=C1/C(=C/c2ccccc2OC(F)(F)F)Cc2ccccc21`, in data set [1], the Activity entry is “Non-Toxic”. In data set [2], the concentration for half-maximal inhibition (IC50) was 7.27 µM.
As for `O=C1/C(=C/c2ccccc2C(F)(F)F)Cc2ccccc21`, the Activity result in data set [1] is on record as “Non-Toxic”. The same compound yielded a 50% inhibitory concentration (IC50) in data set [2] of over 10 µM.
The like results for `O=C1/C(=C/c2ccc(F)cc2)Cc2ccccc21` were, in that order, “Non-Toxic” and over 10 µM.
In the case of `O=C1/C(=C/c2ccccc2F)Cc2c(O)cccc21`, the Activity entry in data set [1] was “Non-Toxic”. The compound also registered a half-maximal inhibitory concentration (IC50) in data set [2] of over 10 µM.
Take `O=C1/C(=C/c2ccc(Br)cc2)Cc2ccc(O)cc21`: the viability at 24 h, 10 µM in data set [4] is under 90%. Besides, in data set [2], the IC50 is 4.27 µM.
On the same counts, the results for `O=C1/C(=C/c2ccccc2)Cc2ccccc21` are under 90% and over 10 µM.
Take `O=C1/C(=C/c2cccc(OC(F)(F)F)c2)Cc2ccccc21`: the Activity result in data set [1] is on record as “Non-Toxic”. In data set [2], this compound came in with an IC50 of over 10 µM.
As to `O=C1/C(=C/c2ccc(Br)cc2)Cc2cc(O)ccc21`, in data set [1], the Activity entry is recorded as “Non-Toxic”. Half-maximal inhibition in data set [2] (IC50) was put at 6.05 µM.
The like results for `O=C1/C(=C/c2cccc(Br)c2)Cc2ccccc21` were, in that order, “Non-Toxic” and over 10 µM.
`O=C1/C(=C/c2cccc(OC(F)(F)F)c2)Cc2cc(O)ccc21`: the Activity result in data set [1] was “Non-Toxic”. In addition, in data set [2], half-maximal inhibition (IC50) required 8.01 µM.
For the compound `O=C1/C(=C/c2ccccc2OC(F)(F)F)Cc2cc(O)ccc21`, the Activity result in data set [1] is reported as “Non-Toxic”. Further, in data set [2], inhibition was half-maximal at 3.38 µM (IC50).
The like results for `O=C1/C(=C/c2cccc(F)c2)Cc2ccc(O)cc21` were, in that order, “Non-Toxic” and over 10 µM.
On the same counts, the results for `O=C1/C(=C/c2ccccc2C(F)(F)F)Cc2ccc(O)cc21` are “Non-Toxic” and 2.61 µM.
Turning to `O=C1/C(=C/c2ccccc2Br)Cc2ccccc21`, in data set [1], the Activity entry is recorded as “Non-Toxic”. The compound further registered an IC50 in data set [2] of over 10 µM.
As to `O=C1/C(=C/c2ccccc2C(F)(F)F)Cc2cccc(O)c21`, the Activity result in data set [1] was “Non-Toxic”. This compound also displayed an IC50 in data set [2] of 1.94 µM.
The like results for `O=C1/C(=C/c2cccc(F)c2)Cc2ccccc21` were, in that order, “Non-Toxic” and over 10 µM.
With `O=C1/C(=C/c2ccc(OC(F)(F)F)cc2)Cc2ccc(O)cc21`, the Activity result in data set [1] was “Non-Toxic”. Besides, the IC50 in data set [2] was over 10 µM.
In the case of `O=C1/C(=C/c2ccc(C(F)(F)F)cc2)Cc2ccc(O)cc21`, in data set [1], the Activity entry was “Non-Toxic”. In data set [2], this compound came in with an IC50 of over 10 µM.
The like results for `O=C1/C(=C/c2ccccc2Br)Cc2cc(O)ccc21` were, in that order, “Non-Toxic” and 8.18 µM.
Turning to `O=C1/C(=C/c2cccc(C(F)(F)F)c2)Cc2cc(O)ccc21`, in data set [1], the Activity entry is on record as “Non-Toxic”. The IC50 in data set [2] was over 10 µM.
Consider `O=C1/C(=C/c2ccc(Br)cc2)Cc2c(O)cccc21`, for which the Activity result in data set [1] is listed as “Non-Toxic”. In data set [2], this compound registered a 50% inhibitory concentration (IC50) of over 10 µM.
Take `O=C1/C(=C/c2cccc(F)c2)Cc2c(O)cccc21`: the Activity entry in data set [1] is “Non-Toxic”. Further, the IC50 in data set [2] was over 10 µM.
The like results for `O=C1/C(=C/c2ccc(F)cc2)Cc2c(O)cccc21` were, in that order, “Non-Toxic” and over 10 µM.
The like results for `O=C1/C(=C/c2ccccc2F)Cc2cc(O)ccc21` were, in that order, “Non-Toxic” and over 10 µM.
Turning to `O=C1/C(=C/c2ccccc2C(F)(F)F)Cc2c(O)cccc21`, in data set [1], the Activity entry is given as “Non-Toxic”. In data set [2], the 50% inhibitory concentration (IC50) is over 10 µM.
On the same counts, the results for `O=C1/C(=C/c2cccc(C(F)(F)F)c2)Cc2cccc(O)c21` are “Non-Toxic” and over 10 µM.
On the same counts, the results for `O=C1/C(=C/c2ccc(C(F)(F)F)cc2)Cc2cccc(O)c21` are “Non-Toxic” and 3.89 µM.
For the compound `O=C1/C(=C/c2ccc(Br)cc2)Cc2cccc(O)c21`, the Activity entry in data set [1] is “Non-Toxic”. The same compound showed a 50% inhibitory concentration (IC50) in data set [2] of over 10 µM.
On to `O=C1/C(=C/c2ccccc2C(F)(F)F)Cc2cc(O)ccc21`, for which the Activity result in data set [1] is “Non-Toxic”. This compound also gave an IC50 in data set [2] of over 10 µM.
The like results for `O=C1/C(=C/c2ccccc2OC(F)(F)F)Cc2c(O)cccc21` were, in that order, “Non-Toxic” and over 10 µM.
On the same counts, the results for `O=C1/C(=C/c2ccccc2Br)Cc2ccc(O)cc21` are “Non-Toxic” and 4 µM.
For the compound `O=C1/C(=C/c2ccc(OC(F)(F)F)cc2)Cc2ccccc21`, in data set [1], the Activity entry is recorded as “Non-Toxic”. The IC50 in data set [2] is over 10 µM.
The like results for `O=C1/C(=C/c2cccc(F)c2)Cc2cccc(O)c21` were, in that order, “Non-Toxic” and 5.61 µM.
